Measurements: patent publication US8835440B2, “Cyclic pyrimidin-4-carboxamides as CCR2 receptor antagonists for treatment of inflammation, asthma and COPD” (Boehringer Ingelheim International GmbH, priority 2008, dated 2014)

molecular target: T1, CCR2 (Homo sapiens, UniProt P41597); assay: CCR2 receptor membrane binding assay ([125I]MCP-1, THP-1 cell membranes, SPA beads); conditions: @ 10 μM test compound; THP-1 membranes; read-out: CCR2 % ctrl @ 10 μM
T1 construct: Membranes were prepared from THP-1 cells; endogenous in cells; host or cells: THP-1 cells (membrane preparation)
T1 sequence (P41597 1-360 isoform P41597-2): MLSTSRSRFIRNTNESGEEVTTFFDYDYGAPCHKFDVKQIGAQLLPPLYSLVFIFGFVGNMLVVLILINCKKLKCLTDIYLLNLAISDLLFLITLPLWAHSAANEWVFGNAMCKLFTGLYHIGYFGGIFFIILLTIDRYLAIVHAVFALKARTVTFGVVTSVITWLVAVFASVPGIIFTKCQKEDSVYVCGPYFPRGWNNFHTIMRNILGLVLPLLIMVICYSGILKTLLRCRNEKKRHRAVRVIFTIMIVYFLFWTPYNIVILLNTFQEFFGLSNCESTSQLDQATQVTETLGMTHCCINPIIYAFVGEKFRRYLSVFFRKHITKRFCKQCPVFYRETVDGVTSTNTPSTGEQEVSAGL
Summary of the method: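 Human THP-1 monocytic cell membranes, pre-coupled to WGA-PVT SPA beads, were incubated with compound and [125I]MCP-1 (ca. 25000 cpm) in 25 mM HEPES pH 7.2, 5 mM MgCl2, 0.5 mM CaCl2, 0.2% BSA, at 1% DMSO final. Bound radioactivity was counted after 8 h, and Ki was obtained by iterative mass-action fitting.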

| SMILES | remaining activity at 10 µM [%] |
| --- | --- |
| Cc1c(NCC2CCC(c3ccccc3)CC2)ncnc1C(=O)N1CCC(N2CCCCC2)CC1 (stereo not shown) [Example 138] | 6 |
| Cc1c(NCCc2cccc(Cl)c2)ncnc1C(=O)N1CCC(N2CCCCC2)CC1 [Example 139] | 9 |
| Cc1c(NCc2cccc(Cl)c2)ncnc1C(=O)N1CCC(N2CCCCC2)CC1 [Example 140] | 16 |
| Cc1c(NCCc2ccc(Cl)cc2)ncnc1C(=O)N1CCC(N2CCCCC2)CC1 [Example 141] | 7 |
| Cc1c(NCc2ccc(Cl)c(C(F)(F)F)c2)ncnc1C(=O)N1CCC(N2CCCCC2)CC1 [Example 142] | 8 |
| Cc1ccc(CCNc2ncnc(C(=O)N3CCC(N4CCCCC4)CC3)c2C)cc1C [Example 143] | 8 |
| Cc1c(NC[C@@H]2CCC[C@@H](c3ccccc3)C2)ncnc1C(=O)N1CCC(N2CCC(O)CC2)CC1 [Example 144] | 7 |
| Cc1c(NC[C@@H]2CCC[C@H](c3ccccc3)C2)ncnc1C(=O)N1CCC(N2CCC(O)CC2)CC1 [Example 145] | 17 |
| Cc1c(NC[C@H]2CCC[C@@H](c3ccccc3)C2)ncnc1C(=O)N1CCC(N2CCC(N(C)S(C)(=O)=O)CC2)CC1 [Example 146] | 7 |
| CCS(=O)(=O)N(C)C1CCN(C2CCN(C(=O)c3ncnc(NC[C@@H]4C[C@H]4c4ccccc4)c3C)CC2)CC1 [Example 147] | 8 |
| Cc1c(NCC2CCCc3ccccc32)ncnc1C(=O)N1CCC(N2CCC(N(C)S(C)(=O)=O)CC2)CC1 (stereo not shown) [Example 148] | 4 |
| Cc1c(NC[C@@H]2CCN(c3ccccc3)C2)ncnc1C(=O)N1CCC(N2CCC(N(C)S(C)(=O)=O)CC2)CC1 [Example 149] | 10 |
| Cc1c(NC[C@H]2CCC[C@H](c3ccccc3)C2)ncnc1C(=O)N1CCC(N2CCC(N(C)S(C)(=O)=O)CC2)CC1 [Example 150] | 3 |
| Cc1c(NC[C@@H]2CCC[C@H](c3ccccc3)C2)ncnc1C(=O)N1CCC(N2CCC(N(C)S(C)(=O)=O)CC2)CC1 [Example 151] | 7 |
| Cc1c(NC[C@@H]2C[C@H]2c2ccccc2)ncnc1C(=O)N1CCC(N2CCC(N(C)S(C)(=O)=O)CC2)CC1 [Example 152] | 7 |
| Cc1c(NCCc2ccc(C(C)(C)C)cc2)ncnc1C(=O)N1CCC(N2CCC(N(C)S(C)(=O)=O)CC2)CC1 [Example 153] | 1 |
| Cc1c(NCC2CCCN(c3ccc(C#N)c(Cl)c3)C2)ncnc1C(=O)N1CCC(N2CCC(N(C)S(C)(=O)=O)CC2)CC1 (stereo not shown) [Example 154] | 15 |
| Cc1c(NCC2CCCN(c3ccccc3)C2)ncnc1C(=O)N1CCC(N2CCC(N(C)S(C)(=O)=O)CC2)CC1 (stereo not shown) [Example 155] | 8 |
| Cc1c(NC[C@H]2CCN(c3ccccc3)C2)ncnc1C(=O)N1CCC(N2CCC(N(C)S(C)(=O)=O)CC2)CC1 [Example 156] | 8 |
| Cc1c(NCc2cnc3ccccc3c2)ncnc1C(=O)N1CCC(N2CCC(N(C)S(C)(=O)=O)CC2)CC1 [Example 157] | 23 |
| Cc1c(NC[C@@H]2CCC[C@@H](c3ccccc3)C2)ncnc1C(=O)N1CCC(N2CCC(N(C)S(C)(=O)=O)CC2)CC1 [Example 158] | 0 |
| Cc1nc(NC[C@H]2CCN(c3ccccc3)C2)c(C)c(C(=O)N2CCC(N3CCC(N(C)S(C)(=O)=O)CC3)CC2)n1 [Example 159] | 4 |

same assay, conditions: dissociation constant hKi; [125I]MCP-1 binding to THP-1 membranes

| SMILES | Ki [nM] |
| --- | --- |
| Cc1c(NCC2CCC(c3ccccc3)CC2)ncnc1C(=O)N1CCC(N2CCCCC2)CC1 (stereo not shown) [Example 138] | 145 |
| Cc1c(NCCc2cccc(Cl)c2)ncnc1C(=O)N1CCC(N2CCCCC2)CC1 [Example 139] | 443 |
| Cc1c(NCc2cccc(Cl)c2)ncnc1C(=O)N1CCC(N2CCCCC2)CC1 [Example 140] | 692 |
| Cc1c(NCCc2ccc(Cl)cc2)ncnc1C(=O)N1CCC(N2CCCCC2)CC1 [Example 141] | 422 |
| Cc1c(NCc2ccc(Cl)c(C(F)(F)F)c2)ncnc1C(=O)N1CCC(N2CCCCC2)CC1 [Example 142] | 529 |
| Cc1ccc(CCNc2ncnc(C(=O)N3CCC(N4CCCCC4)CC3)c2C)cc1C [Example 143] | 422 |
| Cc1c(NC[C@@H]2CCC[C@@H](c3ccccc3)C2)ncnc1C(=O)N1CCC(N2CCC(O)CC2)CC1 [Example 144] | 91 |
| Cc1c(NC[C@@H]2CCC[C@H](c3ccccc3)C2)ncnc1C(=O)N1CCC(N2CCC(O)CC2)CC1 [Example 145] | 181 |
| Cc1c(NC[C@H]2CCC[C@@H](c3ccccc3)C2)ncnc1C(=O)N1CCC(N2CCC(N(C)S(C)(=O)=O)CC2)CC1 [Example 146] | 3 |
| CCS(=O)(=O)N(C)C1CCN(C2CCN(C(=O)c3ncnc(NC[C@@H]4C[C@H]4c4ccccc4)c3C)CC2)CC1 [Example 147] | 40 |
| Cc1c(NCC2CCCc3ccccc32)ncnc1C(=O)N1CCC(N2CCC(N(C)S(C)(=O)=O)CC2)CC1 (stereo not shown) [Example 148] | 119 |
| Cc1c(NC[C@@H]2CCN(c3ccccc3)C2)ncnc1C(=O)N1CCC(N2CCC(N(C)S(C)(=O)=O)CC2)CC1 [Example 149] | 41 |
| Cc1c(NC[C@H]2CCC[C@H](c3ccccc3)C2)ncnc1C(=O)N1CCC(N2CCC(N(C)S(C)(=O)=O)CC2)CC1 [Example 150] | 12 |
| Cc1c(NC[C@@H]2CCC[C@H](c3ccccc3)C2)ncnc1C(=O)N1CCC(N2CCC(N(C)S(C)(=O)=O)CC2)CC1 [Example 151] | 14 |
| Cc1c(NC[C@@H]2C[C@H]2c2ccccc2)ncnc1C(=O)N1CCC(N2CCC(N(C)S(C)(=O)=O)CC2)CC1 [Example 152] | 44 |
| Cc1c(NCCc2ccc(C(C)(C)C)cc2)ncnc1C(=O)N1CCC(N2CCC(N(C)S(C)(=O)=O)CC2)CC1 [Example 153] | 27 |
| Cc1c(NCC2CCCN(c3ccc(C#N)c(Cl)c3)C2)ncnc1C(=O)N1CCC(N2CCC(N(C)S(C)(=O)=O)CC2)CC1 (stereo not shown) [Example 154] | 123 |
| Cc1c(NCC2CCCN(c3ccccc3)C2)ncnc1C(=O)N1CCC(N2CCC(N(C)S(C)(=O)=O)CC2)CC1 (stereo not shown) [Example 155] | 76 |
| Cc1c(NC[C@H]2CCN(c3ccccc3)C2)ncnc1C(=O)N1CCC(N2CCC(N(C)S(C)(=O)=O)CC2)CC1 [Example 156] | 18 |
| Cc1c(NCc2cnc3ccccc3c2)ncnc1C(=O)N1CCC(N2CCC(N(C)S(C)(=O)=O)CC2)CC1 [Example 157] | 1150 |
| Cc1c(NC[C@@H]2CCC[C@@H](c3ccccc3)C2)ncnc1C(=O)N1CCC(N2CCC(N(C)S(C)(=O)=O)CC2)CC1 [Example 158] | 6 |
| Cc1nc(NC[C@H]2CCN(c3ccccc3)C2)c(C)c(C(=O)N2CCC(N3CCC(N(C)S(C)(=O)=O)CC3)CC2)n1 [Example 159] | 25 |
| COc1nc(NCC2CCCC(c3ccccc3)C2)c(C)c(C(=O)N2CCC(N3CCC(N(C)S(C)(=O)=O)CC3)CC2)n1 (stereo not shown) [Example 159a] | 10 |
| CNC(=O)C1CCN(C2CCN(C(=O)c3ncnc(NCC4CCCC(c5ccc(F)cc5)C4)c3C)CC2)CC1 (stereo not shown) [Example 159aa] | 18 |
| Cc1c(NCC2CCC(c3ccc(Cl)cc3)O2)ncnc1C(=O)N1CCC(N2CCC(N(C)S(C)(=O)=O)CC2)CC1 (stereo not shown) [Example 159ab] | 27 |
| Cc1c(NCC2CCOCC2)ncnc1C(=O)N1CCC(N2CCC(N(C)S(C)(=O)=O)CC2)CC1 [Example 159ac] | 5940 |

| SMILES | Ki [nM] |
| --- | --- |
| COc1nc(NCc2ccc(C(C)(C)C)cc2)c(C)c(C(=O)N2CCC(N3CCC(N(C)S(C)(=O)=O)CC3)CC2)n1 [Example 159b] | 7 |
| Cc1c(NCC2CCCC(c3ccc(F)cc3)C2)ncnc1C(=O)N1CCC(N2CCC(NS(C)(=O)=O)CC2)CC1 (stereo not shown) [Example 159ba] | 11 |
| Cc1c(NCC2CCC(C)C2)ncnc1C(=O)N1CCC(N2CCC(N(C)S(C)(=O)=O)CC2)CC1 (stereo not shown) [Example 159bb] | 48 |
| Cc1c(NCC2CCCOC2)ncnc1C(=O)N1CCC(N2CCC(N(C)S(C)(=O)=O)CC2)CC1 (stereo not shown) [Example 159bc] | 3490 |
| Cc1c(NCC2CCC(c3ccc(Cl)cc3)C2)ncnc1C(=O)N1CCC(N2CCC(N(C)S(C)(=O)=O)CC2)CC1 (stereo not shown) [Example 159c] | 13 |
| Cc1c(NCC2CCCC(c3ccc(Cl)cc3)C2)ncnc1C(=O)N1CCC(N2CCC(NS(C)(=O)=O)CC2)CC1 (stereo not shown) [Example 159ca] | 3 |
| Cc1ccc(C2CCC(CNc3ncnc(C(=O)N4CCC(N5CCC(N(C)S(C)(=O)=O)CC5)CC4)c3C)O2)cc1 (stereo not shown) [Example 159cb] | 39 |
| Cc1nc(NC[C@@H]2CCC[C@H](c3ccc(C)o3)C2)c(C)c(C(=O)N2CCC(N3CCC(N(C)S(C)(=O)=O)CC3)CC2)n1 [Example 159cc] | 10 |
| Cc1c(NCC2CCC(c3ccccc3)C2)ncnc1C(=O)N1CCC(N2CCC(N(C)S(C)(=O)=O)CC2)CC1 (stereo not shown) [Example 159d] | 15 |
| Cc1c(NCC2CCCC(c3ccc(Cl)cc3)C2)ncnc1C(=O)N1CCC(N2CCC(N(C)S(C)(=O)=O)CC2)CC1 (stereo not shown) [Example 159da] | 5 |
| Cc1c(NCC2CCCC(c3cccc(F)c3)C2)ncnc1C(=O)N1CCC(N2CCC(N(C)S(C)(=O)=O)CC2)CC1 (stereo not shown) [Example 159db] | 16 |
| COC1COCCC1NC1CCN(C(=O)c2ncnc(NCC3CCCCC3)c2C)CC1 (stereo not shown) [Example 159dc] | 38 |
| Cc1c(NCC2CCCCC2)ncnc1C(=O)N1CCC(N2CCC(N(C)S(C)(=O)=O)CC2)CC1 [Example 159e] | 28 |
| CNC(=O)C1CCN(C2CCN(C(=O)c3ncnc(NCC4CCCC(c5ccc(Cl)cc5)C4)c3C)CC2)CC1 (stereo not shown) [Example 159ea] | 7 |
| Cc1c(NCC2CC(c3ccccc3)CO2)ncnc1C(=O)N1CCC(N2CCC(N(C)S(C)(=O)=O)CC2)CC1 (stereo not shown) [Example 159eb] | 72 |
| COC1COCCC1NC1CCN(C(=O)c2ncnc(NC3Cc4ccccc4C3)c2C)CC1 (stereo not shown) [Example 159ec] | 961 |
| Cc1c(NCC2CCC(C(C)C)CC2)ncnc1C(=O)N1CCC(N2CCC(N(C)S(C)(=O)=O)CC2)CC1 (stereo not shown) [Example 159f] | 14 |
| Cc1c(NCC2CCCCCC2)ncnc1C(=O)N1CCC(N2CCC(N(C)S(C)(=O)=O)CC2)CC1 [Example 159fa] | 35 |
| Cc1c(NCC2COC(c3ccccc3)C2)ncnc1C(=O)N1CCC(N2CCC(N(C)S(C)(=O)=O)CC2)CC1 (stereo not shown) [Example 159fb] | 199 |
| COC1COCCC1NC1CCN(C(=O)c2ncnc(NCC3Cc4ccccc4C3)c2C)CC1 (stereo not shown) [Example 159fc] | 13 |
| Cc1c(NCC2CCCC(C)C2)ncnc1C(=O)N1CCC(N2CCC(N(C)S(C)(=O)=O)CC2)CC1 (stereo not shown) [Example 159g] | 15 |
| Cc1nc(NC[C@H]2CC[C@H](c3cccc(C(F)(F)F)c3)O2)c(C)c(C(=O)N2CCC(N3CCC(N(C)S(C)(=O)=O)CC3)CC2)n1 [Example 159ga] | 28 |
| Cc1ccc([C@H]2CC[C@H](CNc3ncnc(C(=O)N4CCC(N5CCC(N(C)S(C)(=O)=O)CC5)CC4)c3C)O2)cc1 [Example 159gb] | 39 |
| Cc1c(NCC2CCc3ccccc3N2)ncnc1C(=O)N1CCC(N2CCC(N(C)S(C)(=O)=O)CC2)CC1 (stereo not shown) [Example 159gc] | 26 |
| Cc1c(NCC2CCCC(C)(C)C2)ncnc1C(=O)N1CCC(N2CCC(N(C)S(C)(=O)=O)CC2)CC1 (stereo not shown) [Example 159h] | 39 |
